US20090285888A1, “DERIVATIVES OF DIHYDROXYPHENYLALANINE” (priority 2006, published 2009)

What was measured:
[1] = test system: brain (striatum) of the rat; assay: Concentration of dopamine, its metabolites, 5-HT and 5-HIAA in the striatum of benserazide-pretreated rats; format: in vivo; settings: for 3-MT concentration in striatum (MV) / 5-HIAA concentration in striatum (MV) / 5-HT concentration in striatum (MV) / Dopac concentration in striatum (MV) / Dopamine concentration in striatum (MV) / HVA concentration in striatum (MV): 30 min after benserazide, tissue 90 min later
Method: (§1) The rats were pretreated with benserazide, an inhibitor of the aromatic amino acid decarboxylase, in order to reduce the degradation of the test compounds in the blood and to thus provide sufficient concentration of dopamine and α-lipoic acid in the brain. After 30 minutes, L-DOPA (standard therapy for Parkinson's disease) or compound 1, compound 2, compound 3 in doses equivalent to L-DOPA were injected into the peritoneum (intraperitoneal, ip). After a further 90 minutes, blood and brain tissue (striatum) were extracted. A lower dose (25 mg/kg body weight) and a higher dose (50 mg/kg body weight) of L-DOPA were selected.

[2] = test system: blood plasma of rats; assay: Concentration of dopamine, its metabolites, 5-HT and 5-HIAA in the blood plasma of benserazide-pretreated rats; format: in vivo, rat; settings: for 3-MT concentration in blood plasma (MV) / 5-HIAA concentration in blood plasma (MV) / 5-HT concentration in blood plasma (MV) / Dopac concentration in blood plasma (MV) / Dopamine concentration in blood plasma (MV) / HVA concentration in blood plasma (MV): 30 min after benserazide, blood 90 min later
Method: as §1

[3] = test system: nucleus accumbens of a freely moving rat; assay: In vivo microdialysis of dopamine release in the nucleus accumbens of the freely moving rat
Method: The arrow indicates the moment of injection (ip: intraperitoneal) of L-DOPA (25 mg/kg body weight) 30 minutes after the administration of benserazide (10 mg/kg body weight, ip).
The arrow indicates the moment of injection (ip: intraperitoneal) of L-DOPA (50 mg/kg body weight) 30 minutes after the administration of benserazide (10 mg/kg body weight, ip, in 0.9% NaCl).
The arrow indicates the moment of injection (ip: intraperitoneal) of diacetyl-DOPA-ethylene glycol α-lipoic acid (equimolar dose to 25 mg/kg body weight L-DOPA) 30 minutes after the administration of benserazide (10 mg/kg body weight, ip in 0.9% NaCl).
The arrow indicates the moment of injection (ip: intraperitoneal) of diacetyl-DOPA-ethylene glycol α-lipoic acid (equimolar dose to 50 mg/kg body weight L-DOPA) 30 minutes after the administration of benserazide (10 mg/kg body weight, ip).
Furthermore, by the method of in vivo micro dialysis of the conscious and freely moving rat, experiments were carried out to test whether the production and release of dopamine in the nucleus accumbens, a part of the brain with dense innervation of dopamine-containing nerve cells, is increased upon administration of L-DOPA or compound 1. The advantage of said method consists in the fact that the time-course of the release of the messenger dopamine from the active nerve cells can be observed in the conscious and freely moving rat. […] Said strong increase and the high concentrations are not desired since several degradation products of dopamine and the oxygen radicals formed during the degradation of dopamine have damaging effects on nerve cells.

[4] = 25 mg/kg L-DOPA or L-DOPA eq. ip
[5] = 50 mg/kg L-DOPA or L-DOPA eq. ip
[6] = low doses (25 mg/kg L-DOPA eq.)

SMILES: CC(=O)Oc1ccc(C[C@H](N)C(=O)OCCOC(=O)CCCCC2CCSS2)cc1OC(C)=O (stereo partly drawn) [compound 1, O,O′-diacetyl-L-DOPA-ethylene glycol lipoic acid ester]
- 3-MT concentration in striatum (MV) [1, 4]: 308 pg per mg striatum
- 5-HIAA concentration in striatum (MV) [1, 4]: 706 pg per mg striatum
- 5-HT concentration in striatum (MV) [1, 4]: 355 pg per mg striatum
- Dopac concentration in striatum (MV) [1, 4]: 4532 pg per mg striatum
- Dopamine concentration in striatum (MV) [1, 4]: 11244 pg per mg striatum
- HVA concentration in striatum (MV) [1, 4]: 2567 pg per mg striatum
- 3-MT concentration in striatum (MV) [1, 5]: 194 pg per mg striatum
- 5-HIAA concentration in striatum (MV) [1, 5]: 764 pg per mg striatum
- 5-HT concentration in striatum (MV) [1, 5]: 411 pg per mg striatum
- Dopac concentration in striatum (MV) [1, 5]: 9549 pg per mg striatum
- Dopamine concentration in striatum (MV) [1, 5]: 11695 pg per mg striatum
- HVA concentration in striatum (MV) [1, 5]: 4314 pg per mg striatum
- Effect on the metabolites DOPAC and HVA in striatum (in words) ([1]; higher doses (50 mg/kg L-DOPA eq.)): increased
- Effect on the concentrations of dopamine in striatum (in words) [1, 6]: do not lead to an increase
- Effect on the metabolites DOPAC and HVA in striatum (in words) [1, 6]: increased
- 3-MT concentration in blood plasma (MV) [2, 4]: 8563 pg per ml plasma
- 5-HIAA concentration in blood plasma (MV) [2, 4]: 13852 pg per ml plasma
- 5-HT concentration in blood plasma (MV) [2, 4]: 8894 pg per ml plasma
- Dopac concentration in blood plasma (MV) [2, 4]: 57257 pg per ml plasma
- Dopamine concentration in blood plasma (MV) [2, 4]: 29782 pg per ml plasma
- HVA concentration in blood plasma (MV) [2, 4]: 16836 pg per ml plasma
- 3-MT concentration in blood plasma (MV) [2, 5]: 6288 pg per ml plasma
- 5-HIAA concentration in blood plasma (MV) [2, 5]: 15367 pg per ml plasma
- 5-HT concentration in blood plasma (MV) [2, 5]: 12094 pg per ml plasma
- Dopac concentration in blood plasma (MV) [2, 5]: 58266 pg per ml plasma
- Dopamine concentration in blood plasma (MV) [2, 5]: 22129 pg per ml plasma
- HVA concentration in blood plasma (MV) [2, 5]: 71658 pg per ml plasma
- Formation of dopamine in the blood plasma (in words) ([2]; low and higher doses): Dopamine is also formed
- Dose dependence of dopamine release in nucleus accumbens (in words) ([3]; 25 and 50 mg/kg L-DOPA or equimolar doses, FIGS. 1-4): released in a dose-dependent manner
- Time-course of dopamine concentration in nucleus accumbens microdialysate (in words) ([3]; ip, 30 min after benserazide, L-DOPA: higher dose (FIG. 1), compound 1: FIGS. 3 and 4): two-peak-maximum and a less steep increase as well as a longer lasting effect
